Experimental data published in US20260184693A1, “INHIBITORS OF SOLUTE CARRIER FAMILY 6A MEMBER 19 (SLC6A19) AND METHODS OF USE THEREOF” (Maze Therapeutics, Inc., priority 2022, published 2026).

target: T1, human SLC6A19 (Homo sapiens, UniProt Q695T7); experiment: Example B2: 13C6,15N-isoleucine uptake, RapidFire mass spectrometry, in CHO cells with doxycycline-inducible expression of human SLC6A19 and TMEM27; type: cell-based; conditions: read-out: SLC6A19_RapidFire Uptake Assay IC50
T1 construct: expressed in transfected cells
T1 sequence (Q695T7 1-634): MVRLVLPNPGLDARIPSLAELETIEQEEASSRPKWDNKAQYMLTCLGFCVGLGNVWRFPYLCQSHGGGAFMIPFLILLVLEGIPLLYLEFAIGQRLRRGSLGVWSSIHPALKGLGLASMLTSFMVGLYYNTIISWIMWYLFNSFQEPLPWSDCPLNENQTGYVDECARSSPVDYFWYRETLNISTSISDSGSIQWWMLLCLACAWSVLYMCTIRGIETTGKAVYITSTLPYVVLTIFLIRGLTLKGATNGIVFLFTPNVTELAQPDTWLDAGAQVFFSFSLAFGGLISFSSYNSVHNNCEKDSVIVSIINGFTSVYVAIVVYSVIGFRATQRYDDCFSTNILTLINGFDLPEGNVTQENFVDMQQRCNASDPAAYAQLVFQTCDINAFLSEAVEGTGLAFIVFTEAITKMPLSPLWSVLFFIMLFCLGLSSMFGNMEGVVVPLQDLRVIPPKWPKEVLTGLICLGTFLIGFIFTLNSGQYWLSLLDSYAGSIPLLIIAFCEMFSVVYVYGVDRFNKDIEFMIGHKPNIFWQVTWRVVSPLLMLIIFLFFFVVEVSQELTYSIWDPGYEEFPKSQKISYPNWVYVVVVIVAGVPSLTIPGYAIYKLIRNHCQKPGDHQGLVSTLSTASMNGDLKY
T1 sequence (Q9HBJ8 15-222 partner): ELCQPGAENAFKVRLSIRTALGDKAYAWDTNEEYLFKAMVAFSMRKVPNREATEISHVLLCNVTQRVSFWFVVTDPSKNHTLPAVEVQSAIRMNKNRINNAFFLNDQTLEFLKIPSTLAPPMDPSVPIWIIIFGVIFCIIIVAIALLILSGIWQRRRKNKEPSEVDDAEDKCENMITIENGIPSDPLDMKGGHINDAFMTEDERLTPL
In short: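 CHO cells were induced with doxycycline to express human SLC6A19 with TMEM27, then pre-incubated 20 min at 37 °C with compounds (2-fold, 10-point, duplicate). Uptake of 13C6,15N-isoleucine (2 mM solution added) over a further 20 min was measured by RapidFire mass spectrometry, using 13C-leucine as internal standard.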

Row | IC50 [nM] | SMILES
1 | 1000 | CN(C(=O)NCc1cc2cc(Cl)ccc2[nH]1)[C@@H]1CCCN(C(=O)c2ccn3ccnc3c2)C1 [Compound 76, (R)-3-((5-chloro-1H-indol-2-yl)methyl)-1-(1-(imidazo[1,2-a]pyridine-7-carbonyl)piperidin-3-yl)-1-methylurea]
2 | 6570 | Cc1cc(C(=O)N2CCC[C@@H](N(C)C(=O)NCc3cc4cc(Cl)ccc4[nH]3)C2)n(C)n1 [Compound 77, (R)-3-((5-chloro-1H-indol-2-yl)methyl)-1-(1-(1,3-dimethyl-1H-pyrazole-5-carbonyl)piperidin-3-yl)-1-methylurea]
3 | 1760 | COc1ccc(C(=O)N2CCC[C@@H](N(C)C(=O)NCc3cc4cc(Cl)ccc4[nH]3)C2)nc1 [Compound 78, (R)-3-((5-chloro-1H-indol-2-yl)methyl)-1-(1-(5-methoxypicolinoyl)piperidin-3-yl)-1-methylurea]
4 | 5630 | COC(C)(C)C(=O)N1CCC[C@@H](N(C)C(=O)NCc2cc3cc(Cl)ccc3[nH]2)C1 [Compound 79, (R)-3-((5-chloro-1H-indol-2-yl)methyl)-1-(1-(2-methoxy-2-methylpropanoyl)piperidin-3-yl)-1-methylurea]
5 | 5650 | CN(C(=O)NCc1cc2cc(Cl)ccc2[nH]1)[C@@H]1CCCN(C(=O)CC(C)(C)O)C1 [Compound 80, (R)-3-((5-chloro-1H-indol-2-yl)methyl)-1-(1-(3-hydroxy-3-methylbutanoyl)piperidin-3-yl)-1-methylurea]
6 | 1410 | CN(C(=O)NCc1cc2cc(Cl)ccc2[nH]1)[C@@H]1CCCN(C(=O)Cn2ccccc2=O)C1 [Compound 81, (R)-3-((5-chloro-1H-indol-2-yl)methyl)-1-methyl-1-(1-(2-(2-oxopyridin-1(2H)-yl)acetyl)piperidin-3-yl)urea]
7 | 3810 | COCC(C)C(=O)N1CCC[C@@H](N(C)C(=O)NCc2cc3cc(Cl)ccc3[nH]2)C1 (stereo partly drawn) [Compound 82, 3-((5-chloro-1H-indol-2-yl)methyl)-1-((3R)-1-(3-methoxy-2-methylpropanoyl)piperidin-3-yl)-1-methylurea]
8 | 4790 | CN(C(=O)NCc1cc2cc(Cl)ccc2[nH]1)[C@@H]1CCCN(C(=O)COc2ccc(=O)[nH]n2)C1 [Compound 83, (R)-3-((5-chloro-1H-indol-2-yl)methyl)-1-methyl-1-(1-(2-((6-oxo-1,6-dihydropyridazin-3-yl)oxy)acetyl)piperidin-3-yl)urea]
9 | 176 | CN(C(=O)NCc1cc2cc(Cl)ccc2[nH]1)[C@@H]1CCCN(C(=O)C2CCCC2)C1 [Compound 84, (R)-3-((5-chloro-1H-indol-2-yl)methyl)-1-(1-(cyclopentanecarbonyl)piperidin-3-yl)-1-methylurea]
10 | 369 | Cc1ccn(CC(=O)N2CCC[C@@H](N(C)C(=O)NCc3cc4cc(Cl)ccc4[nH]3)C2)n1 [Compound 85, (R)-3-((5-chloro-1H-indol-2-yl)methyl)-1-methyl-1-(1-(2-(3-methyl-1H-pyrazol-1-yl)acetyl)piperidin-3-yl)urea]
11 | 559 | CN(C(=O)NCc1cc2cc(Cl)ccc2[nH]1)[C@@H]1CCCN(C(=O)Cc2cnn(C)c2)C1 [Compound 86, (R)-3-((5-chloro-1H-indol-2-yl)methyl)-1-methyl-1-(1-(2-(1-methyl-1H-pyrazol-4-yl)acetyl)piperidin-3-yl)urea]
12 | 1670 | COc1ncc(C(=O)N2CCC[C@@H](N(C)C(=O)NCc3cc4cc(Cl)ccc4[nH]3)C2)cc1F [Compound 87, (R)-3-((5-chloro-1H-indol-2-yl)methyl)-1-(1-(5-fluoro-6-methoxynicotinoyl)piperidin-3-yl)-1-methylurea]
13 | 4080 | CC(=O)NC(C)C(=O)N1CCC[C@@H](N(C)C(=O)NCc2cc3cc(Cl)ccc3[nH]2)C1 (stereo partly drawn) [Compound 88, N-(1-((R)-3-(3-((5-chloro-1H-indol-2-yl)methyl)-1-methylureido)piperidin-1-yl)-1-oxopropan-2-yl)acetamide]
14 | 1080 | CC(=O)NCCC(=O)N1CCC[C@@H](N(C)C(=O)NCc2cc3cc(Cl)ccc3[nH]2)C1 [Compound 89, (R)-N-(3-(3-(3-((5-chloro-1H-indol-2-yl)methyl)-1-methylureido)piperidin-1-yl)-3-oxopropyl)acetamide]
15 | 13500 | COCc1oncc1C(=O)N1CCC[C@@H](N(C)C(=O)NCc2cc3cc(Cl)ccc3[nH]2)C1 [Compound 90, (R)-3-((5-chloro-1H-indol-2-yl)methyl)-1-(1-(5-(methoxymethyl)isoxazole-4-carbonyl)piperidin-3-yl)-1-methylurea]
16 | 1810 | CN(C(=O)NCc1cc2cc(Cl)ccc2[nH]1)[C@@H]1CCCN(C(=O)CCn2cccn2)C1 [Compound 91, (R)-1-(1-(3-(1H-pyrazol-1-yl)propanoyl)piperidin-3-yl)-3-((5-chloro-1H-indol-2-yl)methyl)-1-methylurea]
17 | 8990 | COCC1(C(=O)N2CCC[C@@H](N(C)C(=O)NCc3cc4cc(Cl)ccc4[nH]3)C2)CC1 [Compound 92, (R)-3-((5-chloro-1H-indol-2-yl)methyl)-1-(1-(1-(methoxymethyl)cyclopropane-1-carbonyl)piperidin-3-yl)-1-methylurea]
18 | 1630 | CN(C(=O)NCc1cc2cc(Cl)ccc2[nH]1)[C@@H]1CCCN(C(=O)C2CCCCO2)C1 (stereo partly drawn) [Compound 93, 3-((5-chloro-1H-indol-2-yl)methyl)-1-methyl-1-((3R)-1-(tetrahydro-2H-pyran-2-carbonyl)piperidin-3-yl)urea]
19 | 2750 | CN(C(=O)NCc1cc2cc(Cl)ccc2[nH]1)[C@@H]1CCCN(C(=O)CN2CCCC2=O)C1 [Compound 94, (R)-3-((5-chloro-1H-indol-2-yl)methyl)-1-methyl-1-(1-(2-(2-oxopyrrolidin-1-yl)acetyl)piperidin-3-yl)urea]
20 | 3240 | CN(C(=O)NCc1cc2cc(Cl)ccc2[nH]1)[C@@H]1CCCN(C(=O)C2CCOCC2)C1 [Compound 95, (R)-3-((5-chloro-1H-indol-2-yl)methyl)-1-methyl-1-(1-(tetrahydro-2H-pyran-4-carbonyl)piperidin-3-yl)urea]
21 | 933 | CC(=O)N1CC(C(=O)N2CCC[C@@H](N(C)C(=O)NCc3cc4cc(Cl)ccc4[nH]3)C2)C1 [Compound 96, (R)-1-(1-(1-acetylazetidine-3-carbonyl)piperidin-3-yl)-3-((5-chloro-1H-indol-2-yl)methyl)-1-methylurea]
22 | 1340 | CN(C(=O)NCc1cc2cc(Cl)ccc2[nH]1)[C@@H]1CCCN(C(=O)C2(O)CCCC2)C1 [Compound 97, (R)-3-((5-chloro-1H-indol-2-yl)methyl)-1-(1-(1-hydroxycyclopentane-1-carbonyl)piperidin-3-yl)-1-methylurea]
23 | 3000 | CN(C(=O)NCc1cc2cc(Cl)ccc2[nH]1)[C@@H]1CCCN(C(=O)CC2(O)CCC2)C1 [Compound 98, (R)-3-((5-chloro-1H-indol-2-yl)methyl)-1-(1-(2-(1-hydroxycyclobutyl)acetyl)piperidin-3-yl)-1-methylurea]
24 | 745 | CN(C(=O)NCc1cc2cc(Cl)ccc2[nH]1)[C@@H]1CCCN(C(=O)C2CC(C)(O)C2)C1 (stereo partly drawn) [Compound 99, (R)-3-((5-chloro-1H-indol-2-yl)methyl)-1-(1-(3-hydroxy-3-methylcyclobutane-1-carbonyl)piperidin-3-yl)-1-methylurea]
25 | 380 | CN(C(=O)NCc1cc2cc(Cl)ccc2[nH]1)[C@@H]1CCCN(C(=O)c2cccc3c2OCC3)C1 [Compound 100, (R)-3-((5-chloro-1H-indol-2-yl)methyl)-1-(1-(2,3-dihydrobenzofuran-7-carbonyl)piperidin-3-yl)-1-methylurea]
26 | 2930 | CN(C)C(=O)NCC(=O)N1CCC[C@@H](N(C)C(=O)NCc2cc3cc(Cl)ccc3[nH]2)C1 [Compound 101, (R)-3-((5-chloro-1H-indol-2-yl)methyl)-1-(1-((dimethylcarbamoyl)glycyl)piperidin-3-yl)-1-methylurea]
27 | 1800 | Cc1cnc2ncc(C(=O)N3CCC[C@@H](N(C)C(=O)NCc4cc5cc(Cl)ccc5[nH]4)C3)n2c1 [Compound 102, (R)-3-((5-chloro-1H-indol-2-yl)methyl)-1-methyl-1-(1-(6-methylimidazo[1,2-a]pyrimidine-3-carbonyl)piperidin-3-yl)urea]
28 | 2240 | CN(C(=O)NCc1cc2cc(Cl)ccc2[nH]1)[C@@H]1CCCN(C(=O)C2CN(S(C)(=O)=O)C2)C1 [Compound 103, (R)-3-((5-chloro-1H-indol-2-yl)methyl)-1-methyl-1-(1-(1-(methylsulfonyl)azetidine-3-carbonyl)piperidin-3-yl)urea]
29 | 6780 | CCC(NC(C)=O)C(=O)N1CCC[C@@H](N(C)C(=O)NCc2cc3cc(Cl)ccc3[nH]2)C1 (stereo partly drawn) [Compound 104, N-(1-((R)-3-(3-((5-chloro-1H-indol-2-yl)methyl)-1-methylureido)piperidin-1-yl)-1-oxobutan-2-yl)acetamide]
